Target: T1, ATP-sensitive inward rectifier potassium channel 11 (Homo sapiens, UniProt Q14654)
T1 sequence (Q14654 whole entry): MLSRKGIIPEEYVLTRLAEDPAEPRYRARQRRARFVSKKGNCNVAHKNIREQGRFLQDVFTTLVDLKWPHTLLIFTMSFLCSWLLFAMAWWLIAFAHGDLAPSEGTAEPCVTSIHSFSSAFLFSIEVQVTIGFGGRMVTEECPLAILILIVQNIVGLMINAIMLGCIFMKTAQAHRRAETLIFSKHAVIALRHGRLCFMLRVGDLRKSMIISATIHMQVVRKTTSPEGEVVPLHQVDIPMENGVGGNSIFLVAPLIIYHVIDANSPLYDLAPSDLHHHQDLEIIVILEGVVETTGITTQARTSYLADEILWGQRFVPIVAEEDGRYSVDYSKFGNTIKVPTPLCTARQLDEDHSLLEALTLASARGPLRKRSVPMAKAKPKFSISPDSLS
Assay: Channel opening activity at human bladder Kir6.2 channel containing SUR2B expressed in L cells by FLIPR assay

CC(Cl)(Cl)[C@@H](NC(=O)c1ccc(Cl)cc1)N/C(=N/C#N)Nc1cccnc1
EC50: 339 nM

COc1ncccc1NC(=NC#N)NC(NC(=O)c1ccc(Cl)cc1)C(C)(Cl)Cl (stereo unspecified)
EC50: 9770 nM

CC(Cl)(Cl)C(NC(=O)c1ccc(Cl)cc1)NC(=NC#N)Nc1cccnc1Cl (stereo unspecified)
EC50: 6030 nM

CC(Cl)(Cl)C(NC(=O)c1cccs1)N/C(=N/C#N)Nc1ccc(F)nc1 (stereo unspecified)
EC50: 4570 nM

Cc1cccc(C(=O)NC(N/C(=N/C#N)Nc2ccc(Cl)nc2)C(C)(Cl)Cl)c1 (stereo unspecified)
EC50: 1700 nM

CC(Cl)(Cl)C(NC(=O)c1ccc(OC(F)(F)F)cc1)N/C(=N/C#N)Nc1ccc(F)nc1 (stereo unspecified)
EC50: 8910 nM

CC(Cl)(Cl)C(NC(=O)c1cc(Cl)cc(Cl)c1)N/C(=N/C#N)Nc1ccc(C(F)(F)F)nc1 (stereo unspecified)
EC50: 3720 nM

COc1ccc(N/C(=N\C#N)NC(NC(=O)c2ccc(Cl)cc2)C(C)(Cl)Cl)cn1 (stereo unspecified)
EC50: 10500 nM

CC(Cl)(Cl)C(NC(=O)c1ccc(C(F)(F)F)cc1)N/C(=N/C#N)Nc1ccc(C(F)(F)F)nc1 (stereo unspecified)
EC50: 26900 nM

Cc1cncc(N/C(=N\C#N)NC(NC(=O)c2ccc(Cl)cc2)C(C)(Cl)Cl)c1 (stereo unspecified)
EC50: 759 nM

Cc1ccc(C(=O)NC(N/C(=N/C#N)Nc2ccc(C(F)(F)F)nc2)C(C)(Cl)Cl)cc1 (stereo unspecified)
EC50: 3800 nM

CC(Cl)(Cl)C(NC(=O)c1ccc(Br)cc1)N/C(=N/C#N)Nc1ccc(C(F)(F)F)nc1 (stereo unspecified)
EC50: > 100000 nM

Cc1nc(C(F)(F)F)ccc1N/C(=N\C#N)NC(NC(=O)c1ccc(Cl)cc1)C(C)(Cl)Cl (stereo unspecified)
EC50: 9550 nM

Cc1ccc(C(=O)NC(N/C(=N/C#N)Nc2ccc(F)nc2)C(C)(Cl)Cl)cc1 (stereo unspecified)
EC50: 4270 nM

CC(Cl)(Cl)C(NC(=O)c1cccs1)N/C(=N/C#N)Nc1cncc(Br)c1 (stereo unspecified)
EC50: 1290 nM

CC(Cl)(Cl)C(NC(=O)c1ccc(Cl)cc1)N/C(=N/C#N)Nc1ccccc1F (stereo unspecified)
EC50: 12000 nM

CC(Cl)(Cl)C(NC(=O)c1cc(Cl)cc(Cl)c1)N/C(=N/C#N)Nc1ccc(Cl)nc1 (stereo unspecified)
EC50: 813 nM

CC(Cl)(Cl)C(NC(=O)c1cccs1)N/C(=N/C#N)Nc1ccc(Cl)nc1 (stereo unspecified)
EC50: 2750 nM

CC(Cl)(Cl)C(NC(=O)c1ccc(Cl)cc1)N/C(=N/C#N)Nc1ccc(Cl)nc1 (stereo unspecified)
EC50: 457 nM

Cc1ccc(C(=O)NC(N/C(=N/C#N)Nc2cncc(Br)c2)C(C)(Cl)Cl)cc1 (stereo unspecified)
EC50: 1320 nM

CC(Cl)(Cl)C(NC(=O)c1cc(Cl)cc(Cl)c1)N/C(=N/C#N)Nc1ccc(F)nc1 (stereo unspecified)
EC50: 2040 nM

CC(Cl)(Cl)C(NC(=O)c1cc(F)cc(F)c1)N/C(=N/C#N)Nc1ccc(F)nc1 (stereo unspecified)
EC50: 4270 nM

CC(Cl)(Cl)C(NC(=O)c1ccc(Br)cc1)N/C(=N/C#N)Nc1ccc(Cl)nc1 (stereo unspecified)
EC50: 537 nM

CC(Cl)(Cl)C(NC(=O)c1cccc(Cl)c1)N/C(=N/C#N)Nc1ccc(F)nc1 (stereo unspecified)
EC50: 2290 nM

Cc1ccc(N/C(=N\C#N)NC(NC(=O)c2ccc(Cl)cc2)C(C)(Cl)Cl)cn1 (stereo unspecified)
EC50: 2240 nM

CC(Cl)(Cl)C(NC(=O)c1cccc(F)c1)N/C(=N/C#N)Nc1ccc(Cl)nc1 (stereo unspecified)
EC50: 5370 nM

CC(Cl)(Cl)C(NC(=O)c1cc(F)cc(F)c1)N/C(=N/C#N)Nc1ccc(C(F)(F)F)nc1 (stereo unspecified)
EC50: 1180 nM

CC(Cl)(Cl)[C@@H](NC(=O)c1ccc(Cl)cc1)N/C(=N/C#N)Nc1ccc(Cl)nc1
EC50: 1070 nM

CC(Cl)(Cl)C(NC(=O)c1ccc(F)cc1)N/C(=N/C#N)Nc1ccc(C(F)(F)F)nc1 (stereo unspecified)
EC50: 2090 nM

COc1cc(OC)cc(C(=O)NC(N/C(=N/C#N)Nc2ccc(Cl)nc2)C(C)(Cl)Cl)c1 (stereo unspecified)
EC50: 8910 nM

CC(Cl)(Cl)C(NC(=O)c1ccc(OC(F)(F)F)cc1)N/C(=N/C#N)Nc1ccc(Cl)nc1 (stereo unspecified)
EC50: 5370 nM

CC(Cl)(Cl)C(NC(=O)c1cccs1)N/C(=N/C#N)Nc1ccc(C(F)(F)F)nc1 (stereo unspecified)
EC50: 1740 nM

CC(Cl)(Cl)C(NC(=O)c1cccc(Cl)c1)N/C(=N/C#N)Nc1ccc(C(F)(F)F)nc1 (stereo unspecified)
EC50: 6760 nM

CC(Cl)(Cl)C(NC(=O)c1ccc(Cl)cc1)N/C(=N/C#N)Nc1cncc(Br)c1 (stereo unspecified)
EC50: 646 nM

Cc1cccc(C(=O)NC(N/C(=N/C#N)Nc2cncc(Br)c2)C(C)(Cl)Cl)c1 (stereo unspecified)
EC50: 1660 nM

CC(Cl)(Cl)C(NC(=O)c1ccc(I)cc1)N/C(=N/C#N)Nc1ccc(Cl)nc1 (stereo unspecified)
EC50: 891 nM

CC(Cl)(Cl)C(NC(=O)c1ccc(I)cc1)N/C(=N/C#N)Nc1ccc(C(F)(F)F)nc1 (stereo unspecified)
EC50: 7760 nM

CC(Cl)(Cl)C(NC(=O)c1ccc(F)cc1)N/C(=N/C#N)Nc1ccc(Cl)nc1 (stereo unspecified)
EC50: 1290 nM

CC(Cl)(Cl)C(NC(=O)c1ccc(Cl)cc1)N/C(=N/C#N)Nc1ccc(C(F)(F)F)nc1 (stereo unspecified)
EC50: 1620 nM

CC(Cl)(Cl)C(NC(=O)c1ccc(Cl)cc1)N/C(=N/C#N)Nc1ccc(F)nc1 (stereo unspecified)
EC50: 1510 nM

Cc1ccc(C(=O)NC(N/C(=N/C#N)Nc2ccc(Cl)nc2)C(C)(Cl)Cl)cc1 (stereo unspecified)
EC50: 912 nM

CC(Cl)(Cl)C(NC(=O)c1ccccc1)N/C(=N/C#N)Nc1ccc(Cl)nc1 (stereo unspecified)
EC50: 2040 nM

CC(Cl)(Cl)C(NC(=O)c1cccc(Cl)c1)N/C(=N/C#N)Nc1cncc(Br)c1 (stereo unspecified)
EC50: 776 nM

CC(Cl)(Cl)[C@H](NC(=O)c1ccc(Cl)cc1)N/C(=N/C#N)Nc1ccc(Cl)nc1
EC50: 2140 nM

CC(Cl)(Cl)C(NC(=O)c1cc(F)cc(F)c1)N/C(=N/C#N)Nc1ccc(Cl)nc1 (stereo unspecified)
EC50: 1100 nM

CC(Cl)(Cl)C(NC(=O)c1ccc(OC(F)(F)F)cc1)N/C(=N/C#N)Nc1cncc(Br)c1 (stereo unspecified)
EC50: > 100000 nM

CC(Cl)(Cl)C(NC(=O)c1ccc(F)cc1)N/C(=N/C#N)Nc1cncc(Br)c1 (stereo unspecified)
EC50: 955 nM

Cc1cccc(C(=O)NC(N/C(=N/C#N)Nc2ccc(F)nc2)C(C)(Cl)Cl)c1 (stereo unspecified)
EC50: 4270 nM

CC(Cl)(Cl)C(NC(=O)c1cc(Cl)cc(Cl)c1)N/C(=N/C#N)Nc1cncc(Br)c1 (stereo unspecified)
EC50: 2630 nM

CC(Cl)(Cl)C(NC(=O)c1ccc(C(F)(F)F)cc1)N/C(=N/C#N)Nc1ccc(Cl)nc1 (stereo unspecified)
EC50: 5010 nM

COc1cnccc1C(=O)NC(N/C(=N/C#N)Nc1ccc(Cl)nc1)C(C)(Cl)Cl (stereo unspecified)
EC50: 6610 nM

CC(Cl)(Cl)C(NC(=O)c1cccc(F)c1)N/C(=N/C#N)Nc1ccc(C(F)(F)F)nc1 (stereo unspecified)
EC50: 2290 nM

CC(Cl)(Cl)C(NC(=O)c1cc(F)cc(F)c1)N/C(=N/C#N)Nc1cncc(Br)c1 (stereo unspecified)
EC50: 1100 nM

Cc1cccc(C(=O)NC(N/C(=N/C#N)Nc2ccc(C(F)(F)F)nc2)C(C)(Cl)Cl)c1 (stereo unspecified)
EC50: 2570 nM

CC(Cl)(Cl)C(NC(=O)c1cccc(Cl)c1)N/C(=N/C#N)Nc1ccc(Cl)nc1 (stereo unspecified)
EC50: 1660 nM

CC(Cl)(Cl)C(NC(=O)c1ccc(F)cc1)N/C(=N/C#N)Nc1ccc(F)nc1 (stereo unspecified)
EC50: 11700 nM

— BindingDB's records for doi:10.1021/jm7010194 (Abbott Laboratories, 2007)
